How the values were obtained:
[1] = target: T1, HCV polymerase (NS5B) type 1b (Hepatitis C virus genotype 1b, UniProt P26663); assay: Assay of enzyme (HCV polymerase) inhibitory activity, type 1b enzyme; assay type: biochemical, HCV BK strain (type 1b); settings: HCV polymerase inhibitory activity IC50, 1b, type 1b enzyme
T1 construct: a region encoding NS5B (J Virol 1991 March, 65(3), 1105-13, 544 amino acids after deletion of 47 amino acids on the C-terminal); 6xHis (C); made in house; host or cells: Escherichia coli
Procedure, shortened: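 Polymerase activity was followed as radiolabelled UTP incorporation by E. coli-expressed, His-tagged NS5B of HCV type 1b lacking its last 47 residues. Conditions: 2 μM UTP, 50 μM other NTPs, Mg2+ buffer at pH 7.5, 25 °C for 60 min. Inhibition relative to compound-free reactions gave IC50.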

[2] = target: T2, HCV polymerase (NS5B) type 1a (Hepatitis C virus genotype 1a, UniProt P26664); assay: Assay of enzyme (HCV polymerase) inhibitory activity, type 1a enzyme; assay type: biochemical, HCV type 1a (cloned from the blood of patients); settings: HCV polymerase inhibitory activity IC50, 1a, type 1a enzyme
T2 construct: made in house; host or cells: Escherichia coli (by the 'similar method' of the 1b enzyme)
Procedure, shortened: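 IC50 values derive from radioactivity of newly synthesized RNA with versus without test compound. The enzyme was C-terminally truncated type 1a NS5B, 1.5 μg/ml, run 60 min at 25° C with 3H-UTP-labelled nucleotides.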

CN(C)c1ncc2sc(N3CCN(S(=O)(=O)c4ccc(OC(F)(F)F)cc4)[C@@H](C(=O)NCc4ccc(OC(F)(F)F)cc4)C3)nc2n1 [Example 945, (R)-4-(5-dimethylamino-thiazolo[4,5-d]pyrimidin-2-yl)-1-(4-trifluoromethoxy-benzenesulfonyl)-piperazine-2-carboxylic acid 4-trifluoromethoxy-benzylamide]
IC50 [1]: < 100 nM
IC50 [2]: < 100 nM

O=C(NCc1ccc(OC(F)(F)F)cc1)[C@H]1CN(c2nc3nc(NCCO)ncc3s2)CCN1S(=O)(=O)c1ccc(OC(F)(F)F)cc1 [Example 946, (R)-4-[5-(2-hydroxy-ethylamino)-thiazolo[4,5-d]pyrimidin-2-yl]-1-(4-trifluoromethoxy-benzenesulfonyl)-piperazine-2-carboxylic acid 4-trifluoromethoxy-benzylamide]
IC50 [1]: < 100 nM
IC50 [2]: < 100 nM

O=C(NCc1ccc(OC(F)(F)F)cc1)[C@H]1CN(c2nc3nc(Cl)ncc3s2)CCN1S(=O)(=O)c1ccc(C(F)(F)F)s1 [Example 947, (R)-4-(5-chloro-thiazolo[4,5-d]pyrimidin-2-yl)-1-(5-trifluoromethyl-thiophene-2-sulfonyl)-piperazine-2-carboxylic acid 4-trifluoromethoxy-benzylamide]
IC50 [1]: < 100 nM
IC50 [2]: < 100 nM

COC(=O)c1cc(=O)nc2sc(N3CCN(S(=O)(=O)c4ccc(OC(F)(F)F)cc4)[C@@H](C(=O)NCc4ccc(OC(F)(F)F)cc4)C3)nn12 [Example 948, 7-oxo-2-[(R)-4-(4-trifluoromethoxy-benzenesulfonyl)-3-(4-trifluoromethoxy-benzylcarbamoyl)-piperazin-1-yl]-7H-[1,3,4]thiadiazolo[3,2-a]pyrimidine-5-carboxylic acid methyl ester]
IC50 [1]: < 100 nM
IC50 [2]: < 100 nM

CCc1ncc2sc(N3CCN(S(=O)(=O)c4ccc(OC(F)(F)F)cc4)[C@@H](C(=O)NCc4ccc(OC(F)(F)F)cc4)C3)nc2n1 [Example 949, (R)-4-(5-ethyl-thiazolo[4,5-d]pyrimidin-2-yl)-1-(4-trifluoromethoxy-benzenesulfonyl)-piperazine-2-carboxylic acid 4-trifluoromethoxy-benzylamide]
IC50 [1]: < 100 nM
IC50 [2]: < 100 nM

CCc1ncc2sc(N3CCN(S(=O)(=O)c4ccc(C(F)(F)F)cc4)[C@@H](C(=O)NCc4ccc(OC(F)(F)F)cc4)C3)nc2n1 [Example 950, (R)-4-(5-ethyl-thiazolo[4,5-d]pyrimidin-2-yl)-1-(4-trifluoromethyl-benzenesulfonyl)-piperazine-2-carboxylic acid 4-trifluoromethoxy-benzylamide]
IC50 [1]: < 100 nM
IC50 [2]: < 100 nM

O=C(NCc1ccc(OC(F)(F)F)cc1)[C@H]1CN(c2nn3c(C(F)(F)F)nnc3s2)CCN1S(=O)(=O)c1ccc(OC(F)(F)F)cc1 [Example 951, (R)-1-(4-trifluoromethoxy-benzenesulfonyl)-4-(3-trifluoromethyl-[1,2,4]triazolo[3,4-b][1,3,4]thiadiazol-6-yl)-piperazine-2-carboxylic acid 4-trifluoromethoxy-benzylamide]
IC50 [1]: < 100 nM
IC50 [2]: < 100 nM

CNc1ncc2sc(N3CCN(S(=O)(=O)c4ccc(OC(F)(F)F)cc4)[C@@H](C(=O)NCc4ccc(OC(F)(F)F)cc4)C3)nc2n1 [Example 952, (R)-4-(5-methylamino-thiazolo[4,5-d]pyrimidin-2-yl)-1-(4-trifluoromethoxy-benzenesulfonyl)-piperazine-2-carboxylic acid 4-trifluoromethoxy-benzylamide]
IC50 [1]: < 100 nM
IC50 [2]: < 100 nM

O=C(NCc1ccc(OC(F)(F)F)cc1)[C@H]1CN(c2nn3cnnc3s2)CCN1S(=O)(=O)c1ccc(C(F)(F)F)cc1 [Example 953, (R)-4-[1,2,4]triazolo[3,4-b][1,3,4]thiadiazol-6-yl-1-(4-trifluoromethyl-benzenesulfonyl)-piperazine-2-carboxylic acid 4-trifluoromethoxy-benzylamide]
IC50 [1]: < 100 nM
IC50 [2]: < 100 nM

O=C(NCc1ccc(OC(F)F)cc1)[C@H]1CN(c2nn3cnnc3s2)CCN1S(=O)(=O)c1ccc(OC(F)(F)F)cc1 [Example 954, (R)-4-[1,2,4]triazolo[3,4-b][1,3,4]thiadiazol-6-yl-1-(4-trifluoromethoxy-benzenesulfonyl)-piperazine-2-carboxylic acid 4-difluoromethoxy-benzylamide]
IC50 [1]: < 100 nM
IC50 [2]: < 100 nM

O=C(NCc1ccc(OC(F)F)cc1)[C@H]1CN(c2nc3nc(Cl)ncc3s2)CCN1S(=O)(=O)c1ccc(OC(F)F)cc1 [Example 955, (R)-4-(5-chloro-thiazolo[4,5-d]pyrimidin-2-yl)-1-(4-difluoromethoxy-benzenesulfonyl)-piperazine-2-carboxylic acid 4-difluoromethoxy-benzylamide]
IC50 [1]: < 100 nM
IC50 [2]: < 100 nM

O=C(NCc1ccc(OC(F)F)cc1)[C@H]1CN(c2nc3ncncc3s2)CCN1S(=O)(=O)c1ccc(OC(F)F)cc1 [Example 956, (R)-1-(4-difluoromethoxy-benzenesulfonyl)-4-thiazolo[4,5-d]pyrimidin-2-yl-piperazine-2-carboxylic acid 4-difluoromethoxy-benzylamide]
IC50 [1]: < 100 nM
IC50 [2]: < 100 nM

Cn1ncc2sc(N3CCN(S(=O)(=O)c4ccc(OC(F)(F)F)cc4)[C@@H](C(=O)NCc4ccc(OC(F)(F)F)cc4)C3)nc2c1=O [Example 957, (R)-4-(5-methyl-4-oxo-4,5-dihydro-thiazolo[4,5-d]pyridazin-2-yl)-1-(4-trifluoromethoxy-benzenesulfonyl)-piperazine-2-carboxylic acid 4-trifluoromethoxy-benzylamide]
IC50 [1]: < 100 nM
IC50 [2]: < 100 nM

CCN(C)c1ccc(CNC(=O)[C@H]2CN(c3nc4nc(Cl)ncc4s3)CCN2S(=O)(=O)c2ccc(OC(F)(F)F)cc2)cc1 [Example 958, (R)-4-(5-chloro-thiazolo[4,5-d]pyrimidin-2-yl)-1-(4-trifluoromethoxy-benzenesulfonyl)-piperazine-2-carboxylic acid 4-(ethyl-methyl-amino)-benzylamide]
IC50 [1]: < 100 nM
IC50 [2]: < 100 nM

O=C(NCc1ccc(OC(F)(F)F)cc1)[C@H]1CN(c2nc3nc(Cl)ncc3s2)CCN1S(=O)(=O)c1ccc(OC(F)(F)C(F)F)cc1 [Example 959, (R)-4-(5-chloro-thiazolo[4,5-d]pyrimidin-2-yl)-1-[4-(1,1,2,2-tetrafluoro-ethoxy)-benzenesulfonyl]-piperazine-2-carboxylic acid 4-trifluoromethoxy-benzylamide]
IC50 [1]: < 100 nM
IC50 [2]: < 100 nM

O=C(NCc1ccc(OC(F)(F)F)cc1)[C@H]1CN(c2nc3ncncc3s2)CCN1S(=O)(=O)c1ccc(OC(F)(F)C(F)F)cc1 [Example 960, (R)-1-[4-(1,1,2,2-tetrafluoro-ethoxy)-benzenesulfonyl]-4-thiazolo[4,5-d]pyrimidin-2-yl-piperazine-2-carboxylic acid 4-trifluoromethoxy-benzylamide]
IC50 [1]: < 100 nM
IC50 [2]: < 100 nM

O=C(NCc1ccc(OC(F)(F)F)cc1)[C@H]1CN(c2nc3nc(C(F)(F)F)ncc3s2)CCN1S(=O)(=O)c1ccc(OC(F)(F)F)cc1 [Example 961, (R)-1-(4-trifluoromethoxy-benzenesulfonyl)-4-(5-trifluoromethyl-thiazolo[4,5-d]pyrimidin-2-yl)-piperazine-2-carboxylic acid 4-trifluoromethoxy-benzylamide]
IC50 [1]: < 100 nM
IC50 [2]: < 100 nM

Nc1nc(Cl)nc2nc(N3CCN(S(=O)(=O)c4ccc(OC(F)(F)F)cc4)[C@@H](C(=O)NCc4ccc(OC(F)(F)F)cc4)C3)sc12 [Example 962, (R)-4-(7-amino-5-chloro-thiazolo[4,5-d]pyrimidin-2-yl)-1-(4-trifluoromethoxy-benzenesulfonyl)-piperazine-2-carboxylic acid 4-trifluoromethoxy-benzylamide]
IC50 [1]: < 100 nM
IC50 [2]: < 100 nM

O=C(NCc1ccc(OC(F)(F)F)cc1)[C@H]1CN(c2nc3nc(Cl)[nH]c(=O)c3s2)CCN1S(=O)(=O)c1ccc(OC(F)(F)F)cc1 [Example 963, (R)-4-(5-chloro-7-oxo-6,7-dihydro-thiazolo[4,5-d]pyrimidin-2-yl)-1-(4-trifluoromethoxy-benzenesulfonyl)-piperazine-2-carboxylic acid 4-trifluoromethoxy-benzylamide]
IC50 [1]: < 100 nM
IC50 [2]: < 100 nM

N#Cc1ncc2sc(N3CCN(S(=O)(=O)c4ccc(OC(F)(F)F)cc4)[C@@H](C(=O)NCc4ccc(OC(F)(F)F)cc4)C3)nc2n1 [Example 964, (R)-4-(5-cyano-thiazolo[4,5-d]pyrimidin-2-yl)-1-(4-trifluoromethoxy-benzenesulfonyl)-piperazine-2-carboxylic acid 4-trifluoromethoxy-benzylamide]
IC50 [1]: < 100 nM
IC50 [2]: < 100 nM

COc1ccc(CNC(=O)[C@H]2CN(c3nc4nc(Cl)ncc4s3)CCN2S(=O)(=O)c2ccc(OC(F)(F)F)cc2)cc1 [Example 965, (R)-4-(5-chloro-thiazolo[4,5-d]pyrimidin-2-yl)-1-(4-trifluoromethoxy-benzenesulfonyl)-piperazine-2-carboxylic acid 4-methoxy-benzylamide]
IC50 [1]: < 100 nM
IC50 [2]: < 100 nM

From patent US8017612B2, “Piperazine compound and use thereof as a HCV polymerase inhibitor” (priority 2006, dated 2011)
